As usually defined, the pEC50 is the negative decadic logarithm of the EC50, by convention in mol/L. As a reminder, the inhibition is the drop in the measured response relative to a control, in per cent. Broadly, the EC50 is the concentration at which the effect is half-maximal.

pEC50: −log10 of the molar value. Some results are limits rather than exact numbers.

These results are taken from US10653688B2, “6-(6-membered heteroaryl and aryl)isoquinolin-3-yl carboxamides and preparation and use thereof” (Samumed, LLC, priority 2017, dated 2020).

In test [1] the test system is Wnt activity (SW480 colon carcinoma cells stably expressing the Sp5-Luc reporter gene). Put plainly: Wnt activity screening assay (Sp5-Luc reporter gene assay). Format: cell-based, human. The settings on record: Homo sapiens; for pEC50: 36 to 48 hours; for inhibition at 10 µM: read-out: percent inhibition at 10 μM (given for EC50 >10 μM), 10 μM. In short, it runs like this:
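EC50 values come from a variable-slope four-parameter fit of luminescence normalized to DMSO-only wells. The read-out follows 36–48 h incubation at 37 °C, 5% CO2, in DMEM containing 1% fetal bovine serum. Cells are hygromycin-selected SW480 stably expressing firefly luciferase under a Wnt-responsive Sp5 promoter (eight TCF/LEF sites).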
In general terms: Reporter assays use an easily measured gene product as a stand-in for the process of interest.

In test [2] the test system is secreted cytokines TNFα, IL-6 and KC-GRO in BV-2 cells (mouse microglial cells). Put plainly: Secreted cytokines in lipopolysaccharide-stimulated mouse glial cell line. Format: cell-based. The settings on record: LPS 250 ng/mL 5 hours, table does not say which cytokine. The essentials: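 BV-2 cells seeded at 35,000/well were pretreated overnight with compound (10 μM to 4.6 nM final), then stimulated 5 h with 250 ng/mL E. coli O111:B4 LPS. Supernatant TNFα, IL-6 and KC-GRO were quantified by electrochemiluminescence against standard curves (pg/mL) to fit EC50. Cytotoxicity was checked by CellTiter-Glo ATP read-out.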

In test [3] the test system is Tau phosphorylation at Ser396 (pSer396) in SH-SY5Y cells. Put plainly: Tau phosphorylation at Ser396 (pSer396) cell assay, ELISA/western blot. Format: cell-based, human. Particulars: Homo sapiens; SH-SY5Y cells, overnight (16-18 h); read-out: pSer396 Tau EC50. The procedure: SH-SY5Y cells (human neuroblastoma) were cultured in DMEM/F-12 medium supplemented with 15% FBS, Non-essential Amino Acid and Penicillin/Streptomycin. Two days before treatment, cells were seeded onto 96 well plates at 5×10^4 cells/well.
The above synthesized compounds were screened using the cell assay procedure to assess decrease Tau phosphorylation at Ser396 (pSer396) described below.
DMSO-resuspended compounds were dispensed to 8 wells as a serial titration from 10 μM to 4.6 nM final in medium and cells were exposed overnight (16-18 h) in a humidified incubator at 36.6c before harvest.
Cells were lysed with RIPA buffer complemented with phosphatase and protease inhibitors then lysates were spun down at 12,000 g for 10 min to remove any cellular debris. Lysates are then either directly tested for pSer396 by ELISA (Life Technology, Kit KHB7031) or loaded on NuPage Bis-Tris gels for western blot analysis. Colorimetric detection of ELISA signal is performed by Cytation3 plate reader (Biotek) and the chemiluminescence signal for HRP-linked antibodies used in western blotting is detected using a Carestream Image Station. The same pSer396 antibody is used for detection of pTau in both assays.
Blot densitometry for pSer396 and β-actin were analyzed using ImageJ (NIH) and pSer396 Tau ELISA signal was used to plot, draw the curve fitting, and determine each compounds EC50 in Prism (GraphPad).
(In an ELISA, binding on a coated surface is turned into a signal by an enzyme label.)

In test [4] the test system is SW480 colon carcinoma cells. Put plainly: Cell viability assay (CellTiter-Glo). It is filed as cell-based, human. The settings on record: Homo sapiens; for pEC50: 96 h, four days, CellTiter-Glo; for inhibition at 10 µM: read-out: percent inhibition at 10 μM (given for EC50 >10 μM), 10 μM. (Cellular ATP, detected with luciferase, serves as a proxy for viable cell number.)

For test [5], the system named is pT212Tau in Dyrk1a- and MAPT-overexpressing HEK293T cells. Put plainly: Tau phosphorylation at Threonine 212 (pT212Tau) sandwich ELISA in double transfected cells. Particulars: Homo sapiens, HEK-293T, read-out: Thr212 EC50 (μM).
Method: HEK293T cells (transfectable human embryonic kidney cells) were cultured in DMEM medium supplemented with 10% FBS and 1% penicillin/streptomycin.
HEK293T cells were transiently transfected to overexpress Dyrk1a and microtubule-associated protein Tau (MAPT) genes. Specifically, Dyrk1a and MAPT expression vectors were obtained from OriGene (10 μg of each, catalog numbers SC314641 and RC216166, respectively). […] HEK293T cells were seeded at 1.0×10^7 cells in 10 mL per T-75 flask. […] One T-75 flask was designated as a no-vector negative control for pT212Tau signal.
After 4-6 hours of incubation in transfection reagents, transiently double transfected HEK293T cells were dissociated by treatment with trypsin EDTA and seeded at 1.0×10^5 cells in 100 μL per well in 96-well plates. No-vector negative controls were seeded in separate 96-well plates to avoid the risk of the negative control cells picking up the overexpression during incubation.
96-well flat-bottom plates were coated with 100 μL per well anti-HT7 capture antibody (ThermoFisher, MN1000) diluted 1:300 in 1×PBS at 4° C. overnight, with shaking at 500 rpm.
Cells were then lysed with 100 μL 1×RIPA buffer supplemented with phosphatase and protease inhibitors (each diluted to a final 1×). […] V-bottom plates were centrifuged at 4000 rpm, 4° C., for 15 minutes, and 100 μL of lysate supernatant from each well was directly tested for pT212Tau signal by sandwich ELISA.

As to `O=C(Nc1cc2cc(-c3cnccn3)ccc2cn1)[C@H]1C[C@H](N2CCOCC2)C1` [Compound 69, trans-3-Morpholino-N-(6-(pyrazin-2-yl)isoquinolin-3-yl)cyclobutane-1-carboxamide], the pEC50 in test [1] is < 5.00; in test [2] it was 6.12; in test [3], 5.54; in test [4] it was < 5.00. Also, the figures for the inhibition at 10 µM in test [1] and in test [4] were 9% and 19.5%, respectively. For the same molecule, the EC50 in test [5] worked out at 0.227 µM.
Take `O=C(Nc1cc2cc(-c3cncc(NC4CCNCC4)n3)ccc2cn1)C1CCCCC1` [Compound 44, N-(6-(6-(piperidin-4-ylamino)pyrazin-2-yl)isoquinolin-3-yl) cyclohexanecarboxamide]: the pEC50 in test [1] is 6.50; in test [2] it was 7.22; in test [4], 6.09. Besides, in test [5], the concentration giving a half-maximal response (EC50) was < 0.003 µM.
With `Cc1nccn1CC(=O)Nc1cc2cc(-c3cccnc3)ccc2cn1` [Compound 14, 2-(2-Methyl-1H-imidazol-1-yl)-N-(6-(pyridin-3-yl)isoquinolin-3-yl) acetamide], the pEC50 in test [1] was 5.44; in test [2], 6.87; in test [3], 5.80; in test [4] it was < 5.00. Further, the inhibition at 10 µM in test [4] was determined as 47.6%. In test [5], the EC50 worked out at 0.043 µM.
In the case of `CN1CCN(CC(=O)Nc2cc3cc(-c4ccc(F)nc4)ccc3cn2)CC1` [Compound 21, N-(6-(6-Fluoropyridin-3-yl)isoquinolin-3-yl)-2-(4-methylpiperazin-1-yl) acetamide], the pEC50 in test [1] was < 5.00; in test [2], 6.17; in test [3] it was < 5.00; in test [4], < 5.00. For the same molecule, the inhibition at 10 µM in test [1] came out at 5.5%; in test [4], 50%. Besides, the EC50 in test [5] is 1.5 µM.
Turning to `[2H]C1([2H])OC([2H])([2H])C([2H])([2H])N(CC(=O)Nc2cc3cc(-c4cccnc4)ccc3cn2)C1([2H])[2H]` [Compound 151, 2-(Morpholino-d8)-N-(6-(pyridin-3-yl)isoquinolin-3-yl)acetamide], the pEC50 was < 5.00 in test [1], 6.70 in test [2] and < 5.00 in test [4]. The inhibition at 10 µM in test [1] is 10.7%; in test [4], 24.6%. For the same molecule, the EC50 in test [5] stood at 0.009 µM.
For the molecule `COc1cncc(-c2ccc3cnc(NC(=O)C4CCN(C)CC4)cc3c2)c1` [Compound 33, N-(6-(5-Methoxypyridin-3-yl)isoquinolin-3-yl)-1-methylpiperidine-4-carboxamide], the negative-log EC50 (pEC50) in test [1] is 6.09; in test [2], 7.21; in test [3], 5.84; in test [4], 5.74. The EC50 in test [5] is 0.033 µM.
`CN1CCC(C(=O)Nc2cc3cc(-c4cncc(C#N)c4)ccc3cn2)CC1` [Compound 32, N-(6-(5-Cyanopyridin-3-yl)isoquinolin-3-yl)-1-methylpiperidine-4-carboxamide]: the pEC50 was < 5.00 in test [1], 6.19 in test [2] and < 5.00 in test [4]. Besides, the inhibition at 10 µM in test [1] stood at 24.2%; in test [4] it was 8.8%. Further, in test [5], the EC50 turned out to be 0.161 µM.
With `O=C(Nc1cc2cc(-c3cnccn3)ccc2cn1)C1CCN(C2COC2)CC1` [Compound 78, 1-(Oxetan-3-yl)-N-(6-(pyrazin-2-yl)isoquinolin-3-yl)piperidine-4-carboxamide], the pEC50 in test [1] was < 5.00; in test [2] it was 6.88; in test [3] it was < 5.00; in test [4], < 5.00. Moreover, the inhibition at 10 µM in test [1] was determined as 28.1%; in test [4], 27.7%.
Take `CN1CCN(c2cc(C(=O)Nc3cc4cc(-c5cnc6ocnc6c5)ccc4cn3)ccn2)CC1` [Compound 132, 2-(4-Methylpiperazin-1-yl)-N-(6-(oxazolo[5,4-b]pyridin-6-yl)isoquinolin-3-yl)isonicotinamide]: the pEC50 was 5.50 in test [1], 5.22 in test [2] and 5.82 in test [4]. For the same molecule, the EC50 in test [5] was determined as 6.2 µM.
In the case of `CC(C)CN1CCCC(C(=O)Nc2cc3cc(-c4cnccn4)ccc3cn2)CC1` (stereo not shown) [Compound 81, 1-Isobutyl-N-(6-(pyrazin-2-yl)isoquinolin-3-yl)azepane-4-carboxamide], the pEC50 in test [1] is < 5.00; in test [2], 5.83; in test [4], < 5.00. Besides, the values for the inhibition at 10 µM in test [1] and in test [4] were 3.9% and 21.3%, respectively. The EC50 in test [5] was 0.37 µM.
Turning to `O=C(CN1CCCC1)Nc1cc2cc(-c3cncc(F)c3)ccc2cn1` [Compound 18, N-(6-(5-Fluoropyridin-3-yl)isoquinolin-3-yl)-2-(pyrrolidin-1-yl)acetamide], the pEC50 is < 5.00 in test [1], 5.88 in test [2] and < 5.00 in test [4]. The figures for the inhibition at 10 µM in test [1] and in test [4] were 9.2% and 22.2%, respectively. For the same molecule, in test [5], the 50% effective concentration (EC50) came out at 0.053 µM.
On to `CN1CCN(CC(=O)Nc2cc3cc(-c4cncc(F)c4)ccc3cn2)CC1` [Compound 20, N-(6-(5-Fluoropyridin-3-yl)isoquinolin-3-yl)-2-(4-methylpiperazin-1-yl) acetamide], for which, in test [1], the pEC50 was < 5.00 and the inhibition at 10 µM was determined as 17.4%. In test [4], the pEC50 is < 5.00 and the inhibition at 10 µM came out at 37.2%. Besides, the EC50 in test [5] turned out to be 0.252 µM.
As to `COc1cncc(-c2ccc3cnc(NC(=O)CN4CCOCC4)cc3c2)c1` [Compound 147, N-(6-(5-Methoxypyridin-3-yl)isoquinolin-3-yl)-2-morpholinoacetamide], the pEC50 in test [1] was < 5.00; in test [2], 6.20; in test [4] it was < 5.00. In addition, the results for the inhibition at 10 µM in test [1] and in test [4] were 38.8% and 5.3%, respectively. Also, the EC50 in test [5] was 0.147 µM.
Regarding `O=C(Nc1cc2cc(-c3cncc(NC4CCNCC4)n3)ccc2cn1)C1CCOCC1` [Compound 109, N-(6-(6-(Piperidin-4-ylamino)pyrazin-2-yl)isoquinolin-3-yl)tetrahydro-2H-pyran-4-carboxamide], the pEC50 was 6.13 in test [1], 6.68 in test [2] and 5.91 in test [4]. The EC50 in test [5] was found to be 0.014 µM.
Take `CN1CCN(CC(=O)Nc2cc3cc(-c4cccnc4)c(F)cc3cn2)CC1` [Compound 145, N-(7-Fluoro-6-(pyridin-3-yl)isoquinolin-3-yl)-2-(4-methylpiperazin-1-yl) acetamide]: the pEC50 in test [1] was < 5.00; in test [2], 6.80; in test [4], < 5.00. Further, the inhibition at 10 µM was found to be 26.2% in test [1] and 18.8% in test [4]. Also, the concentration giving a half-maximal response (EC50) in test [5] is 0.81 µM.
Take `O=C(CN1CCOCC1)Nc1cc2cc(-c3cccnc3)c(F)cc2cn1` [Compound 144, N-(7-Fluoro-6-(pyridin-3-yl)isoquinolin-3-yl)-2-morpholinoacetamide]: the values for the pEC50 in test [1], in test [2] and in test [4] were < 5.00, 6.80 and < 5.00, respectively. The inhibition at 10 µM stood at 23% in test [1] and 22% in test [4]. The EC50 in test [5] worked out at 0.051 µM.
As for `Cc1cc2ncc(-c3ccc4cnc(NC(=O)c5ccnc(N6CCN(C)CC6)c5)cc4c3)cc2[nH]1` [Compound 135, N-(6-(2-Methyl-1H-pyrrolo[3,2-b]pyridin-6-yl)isoquinolin-3-yl)-2-(4-methylpiperazin-1-yl)isonicotinamide], the values for the negative-log EC50 (pEC50) in test [1], in test [2] and in test [4] were 5.59, 5.65 and 5.63, respectively. Moreover, the EC50 in test [5] came out at 3.2 µM.
